Source: patent publication US20240226066A1, “CARDIOPROTECTION BY AUTOPHAGY INDUCTION AND METABOLIC REPROGRAMMING” (UNIVERSITE PARIS-SACLAY, priority 2021, published 2024)
Like-named read-outs stand apart in the source and are kept apart here.

Key:
hERG potassium channel = molecular target: T1, hERG potassium channel (Homo sapiens, UniProt Q12809); test: hERG channel binding assay ([3H]dofetilide displacement); details: for inhibition at 10 µM: human, probe [3H]dofetilide
T1 construct: Eurofins
Experimental: The evaluation of the binding of the compounds to the human hERG potassium channel was carried out as described previously (Eurofins).
Since the blocking of the human potassium channel hERG channel may be responsible for cardiac fibrillation leading to cardiac arrest and death of the patient, the binding of the 3 molecules SG6163F, VP331 and LOPA87 to this receptor was evaluated.

LC3II = test: LC3 I/II conversion by western blot in RNVCs; type: cell-based, rat; details: 1 μM
Experimental: FIG. 4E: LC3-I/II protein levels in the RNVCs. Data are presented as mean±SEM with single-factor ANOVA, and multiple Sidak comparisons. *, p<0.05, **, p<0.01 with respect to DMSO.
The H9C2 cells and RNVCs were detached in LB containing: 50 mM Tris, 150 mM NaCl, 1 mM EDTA, 0.5% deoxycholate, 1% Triton X 100, 0.1% SDS (pH 8.0). The cells were collected and placed on ice for 30 minutes. The cells were then centrifuged at 2000 g for 20 minutes at for 4° C. The supernatant was transferred to a new tube and stored on ice. The protein concentration was determined by BCA assay. The protein samples were diluted with sample buffer (2× Laemmli, Sigma), mixed, and heated for 5 minutes at 95° C. […] The images were recorded with a gel imaging system (Bio Rad). […]
(§1) Next, the hypothesis that the compounds could protect cardiac cells by activating autophagy, a catabolic process conserved in evolution that involves the degradation of damaged cytoplasmic components, was formulated. […] Then, the cells were treated with the hits and with H2O2 for 2 hours and their survival was analyzed 4 hours later by measuring LDH release (FIGS. 4B, 4C). […] In order to confirm the induction of autophagy by another approach, the RNVCs were transfected with a GFP-LC3 plasmid and the formation of the autophagosome was monitored 24 hours later. […]

RNVCs [1] = test: Autophagosome formation after GFP-LC3 plasmid transfection (fluorescence microscopy); type: cell-based, rat; details: GFP-LC3 transfected RNVCs
Experimental: FIG. 4D: after transfection of the plasmid GFP-LC3, the fluorescent green GFP-LC3 spots were visualized by fluorescence microscopy and quantified with ImageJ to verify autophagosome formation. Data are presented as mean±SEM with single-factor ANOVA, and multiple Sidak comparisons. ***, p<0.001 with respect to 0.01% DMSO.
On day 0, 4×10^5 neonatal cardiomyocytes were plated overnight in laminin-coated 35 mm culture dishes (10 μg/ml). On day 1, the cells were transfected with 1 μg of GFP-LC3 plasmid using the transfection reagent Lipofectamine® 2000 (1 μg of GFP-LC3 corresponds to 2.5 μl of transfection reagent), for 48 h, then the green fluorescence was detected with a Leica confocal microscope (SP5). The analyses were carried out with the ImageJ program (Wayne Rasband, National Institutes of Health, USA).
as §1

RNVCs [2] = test: Mitochondrial ROS production with MitoSOX fluorescent probe; type: cell-based, rat; details: 1 μM, 6 h
Experimental: FIG. 12: The RNVCs were treated with 0.1% DMSO, 3 μM rapamycin, 1 μM digitoxigenin, 1 μM digoxin, 1 μM minaprin, 1 μM VP331, 1 μM LOPA87, 10 μM SG6163F for 6 h, then the ROS production was stained with the MitoSOX fluorescent probe.
The RNVCs were treated with 0.01% DMSO, 3 μM rapamycin, […], 1 μM digoxin, 1 μM minaprine, 1 μM VP331, 1 μM LOPA87, 10 μM SG6163F in a serum-free cell culture medium for 6 hours. The contents (50 μg) of a MitoSOX™ mitochondrial superoxide indicator vial (ThermoFisher, M36008) were dissolved in 13 μl dimethyl sulfoxide (DMSO) to prepare a 5 mM MitoSOX™ reagent stock solution. Next, the 5 mM MitoSOX™ reagent stock solution in PBS was diluted to prepare a 5 μM working solution of MitoSOX™ reagent. After treatment, the cells were rinsed twice with hot PBS and then incubated with a MitoSOX reagent working solution for 10 minutes at 37° C. The cells were gently rinsed three times with hot PBS. Red fluorescence was detected with a Leica confocal microscope. Nuclear fluorescence was suppressed and mitochondrial fluorescence intensity was measured using ImageJ software.
ROSs are produced or accumulated as a by-product of mitochondrial activity metabolism. Thus, the ROSs may be a consequence of mitochondrial function or may reflect a defect in the mitochondrial antioxidant system.

T1 sequence (Q12809 whole entry): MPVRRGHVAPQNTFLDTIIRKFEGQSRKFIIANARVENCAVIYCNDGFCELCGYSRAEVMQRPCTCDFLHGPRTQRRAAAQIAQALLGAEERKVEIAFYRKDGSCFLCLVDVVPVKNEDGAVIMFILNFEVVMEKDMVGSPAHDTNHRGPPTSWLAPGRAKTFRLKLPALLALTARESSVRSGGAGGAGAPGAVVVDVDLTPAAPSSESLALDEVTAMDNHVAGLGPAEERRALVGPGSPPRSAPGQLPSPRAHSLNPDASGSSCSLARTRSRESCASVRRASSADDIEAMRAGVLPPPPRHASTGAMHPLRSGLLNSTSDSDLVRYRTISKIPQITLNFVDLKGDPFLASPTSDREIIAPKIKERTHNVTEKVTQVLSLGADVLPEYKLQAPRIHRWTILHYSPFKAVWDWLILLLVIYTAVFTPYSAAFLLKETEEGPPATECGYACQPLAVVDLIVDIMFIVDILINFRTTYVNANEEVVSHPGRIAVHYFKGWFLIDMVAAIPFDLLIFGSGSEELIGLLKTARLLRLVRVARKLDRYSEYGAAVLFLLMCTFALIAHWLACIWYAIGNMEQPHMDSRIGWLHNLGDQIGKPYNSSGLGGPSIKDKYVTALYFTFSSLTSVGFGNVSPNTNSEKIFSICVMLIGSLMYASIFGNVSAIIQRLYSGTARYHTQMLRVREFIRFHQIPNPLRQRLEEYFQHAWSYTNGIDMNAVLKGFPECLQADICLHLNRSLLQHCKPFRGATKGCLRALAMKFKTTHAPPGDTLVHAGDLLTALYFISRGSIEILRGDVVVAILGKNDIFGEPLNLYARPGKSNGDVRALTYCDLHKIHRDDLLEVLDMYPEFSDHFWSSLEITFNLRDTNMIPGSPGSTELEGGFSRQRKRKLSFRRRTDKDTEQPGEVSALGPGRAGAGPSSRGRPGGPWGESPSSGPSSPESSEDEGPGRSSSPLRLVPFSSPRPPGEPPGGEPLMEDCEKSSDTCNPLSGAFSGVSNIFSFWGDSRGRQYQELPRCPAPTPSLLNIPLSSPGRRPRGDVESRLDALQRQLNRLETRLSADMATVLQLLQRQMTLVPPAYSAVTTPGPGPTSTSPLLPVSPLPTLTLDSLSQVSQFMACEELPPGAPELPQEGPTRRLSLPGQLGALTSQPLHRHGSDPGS

Structure (SMILES) | inhibition at 10 µM (hERG potassium channel; inhibition of tritiated dofetilide binding, only values >50% considered effective, read-out: % inhibit 1st assay) [%] | inhibition at 10 µM (hERG potassium channel; inhibition of tritiated dofetilide binding, only values >50% considered effective, read-out: % inhibit 2nd assay) [%] | inhibition at 10 µM (hERG potassium channel; mean of two independent measurements, read-out: % inhibit Mean) [%] | binding to the hERG channel (hERG potassium channel; inhibition of specific binding of [3H]dofetilide in vitro) | increase in level of expression of LC3II (LC3II) [fold] | formation of autophagosomes (RNVCs [1]) | local level of mitochondrial superoxide anion (RNVCs [2])
O=C1NC(c2ccccc2)=N/C1=C\c1cc2ccccc2c2ccccc12 [SG6163F] | 40.5 | 36.6 | 38.5 | negligible | > 1.5 | capable of causing the formation of autophagosomes | –
C[C@]12CC[C@H](O)C[C@H]1CC[C@@H]1[C@@H]2CC[C@]2(C)[C@@H](C3=CC(=O)OC3)CC[C@]12O [digitoxigenin] | – | – | – | – | – | – | induced an elevation
